The values below come from patent US20260035338A1, “AMINO LIPID COMPOUND AND LIPID NANOPARTICLE FOR DELIVERING BIOACTIVE INGREDIENT” (SHENZHEN SHENXIN BIOTECHNOLOGY CO., LTD., priority 2022, published 2026).

One assay relates to BALB/c mice. The experiment in a line: In vivo delivery of Fluc mRNA-encapsulating LNP formulations, luciferase signal by In Vivo Imaging System (IVIS). Particulars: tail vein injection (IV) 70 μL, female BALB/c mice, 6 hours after injection; for Average number of photons (Total in-vivo flux): LNP formulation encapsulating Fluc mRNA (Lipid:DSPC:CHO-HP:M-DMG-2000 48:10:40.5:1.5); for Average number of photons (Liver) / Average number of photons (Spleen): LNP formulation encapsulating Fluc mRNA. As for the experimental part: Animal preparation: Female BALB/c mice of 6-8 weeks old were selected and raised in an SPF grade breeding room. Animal testing was conducted in strict accordance with the guidelines of national health institutions and animal ethics requirements.
In vivo Delivery: prior to injection of the test LNP formulation, the LNP formulation was gently and repeatedly inverted to thoroughly mix the sample of the formulation. A corresponding amount of the LNP formulation was aspirated with a 1 ml insulin syringe, and the LNP formulation was injected by tail vein injection (IV), with 3 mice in duplicate per formulation. Each mouse was injected with 70 μL of the corresponding LNP formulation encapsulating the luciferase mRNA (Fluc mRNA) prepared in Experimental Example 1.
6 hours after injection of LNP formulations, mice were injected with 200 μL D-Luciferin luciferase developing substrate (Catalog No. 122799; Manufacturer: Perkin Elmer). After the substrate was injected, the mice were anesthetized with isoflurane inhalation, and the injection time of luciferase developing substrate was recorded.
The encapsulation efficiency of the lipid nanoparticle encapsulating luciferase mRNA (Fluc mRNA) with a representative amino lipid compound and the fluorescence expression intensity induced by the same are shown in Table 4, with the LNP formulation containing SM-102, 1001 or ALC-0315 as a control LNP formulation. The preparation method of the control LNP formulation was basically the same as that of the LNP formulations in Experimental Example 1, with the difference lying in that the amino lipid compounds of the present disclosure were replaced with SM-102, 1001 or ALC-0315 in the preparation of the control LNP formulation.

The subject of assay [1] is immune cell populations in the spleen and PBMC. The experiment in a line: Delivery efficiency of eGFP mRNA LNP to immune cell populations in spleen and peripheral blood (flow cytometry). Particulars: eGFP mRNA encapsulating LNP, intravenous, C57BL/6 mice, 12 hours, flow cytometry (FIG. 6 to 7). The assay is classed as in vivo. As for the experimental part:
C57BL/6 mice (3 mice per group) were intravenously injected with eGFP mRNA encapsulating LNP. After 12 hours, the mice were dissected, and the spleen and peripheral blood, were collected to prepare single-cell suspensions of various tissues and organs. After blocking with Fc blocking antibodies and surface staining with fluorescent-labeled antibodies, flow cytometry was conducted to analyze the expression levels of eGFP in various immune cell populations to confirm the delivery efficiency of lipid nanoparticles comprising different amino lipid compounds to immune cell populations in different tissues and organs.
“Blank” in FIG. 6 and FIG. 7 refers to the control group injected with 100 μL Tris buffer.
Background: In flow cytometry, cells or beads pass a laser one at a time.

For the compound `CCCCCCOC(CCCOC(=O)CCCCCCCCC(CCCCCCCCC(=O)OCCCC(OCCCCCC)OCCCCCC)OC(=O)OCCCN(CC)CC)OCCCCCC` [compound 382], in the assay with BALB/c mice, the “Average number of photons (Total in-vivo flux)” value was 5.28E+07, the “Average number of photons (Liver)” value was found to be 6.78E+06 and the “Average number of photons (Spleen)” value came to 1.88E+05. Further, in assay [1], the “delivery efficiency to immune cell populations (eGFP expression)” value (from here on “delivery efficiency”) was “different delivery preferences to different immune cells”.
The corresponding values for `CCCCCCOC(CCCOC(=O)CCCCCCCCC(CCCCCCCCC(=O)OCCCC(OCCCCCC)OCCCCCC)OC(=O)OCCCN(C)C)OCCCCCC` [compound 388] are 1.94E+08, 3.66E+07, 1.34E+06 and “different delivery preferences to different immune cells”.
For `CCCCCCCCCOC(CCCOC(=O)CCCCCCCCC(CCCCCCCCC(=O)OCCCC(OCCCCCC)OCCCCCC)OC(=O)OCCCN(CC)CC)OCCCCCCCCC` (stereo not shown) [compound 867], in the assay on BALB/c mice, the “Average number of photons (Total in-vivo flux)” value is recorded as 2.15E+07, the “Average number of photons (Liver)” value worked out at 4.12E+06 and the “Average number of photons (Spleen)” value is 1.36E+05.
Taken in the same sequence, the figures for `CCCCCCCCOC(CCCOC(=O)CCCCCCCCC(CCCCCCCCC(=O)OCCCC(OCCCCCCC)OCCCCCCC)OC(=O)OCCCN(CC)CC)OCCCCCCCC` (stereo not shown) [compound 868] were 3.04E+07, 5.35E+06 and 1.74E+05.
Consider `CCCCCCCCCOC(CCCOC(=O)CCCCCCCCC(CCCCCCCCC(=O)OCCCC(OCCCCCCC)OCCCCCCCC)OC(=O)OCCCN(CC)CC)OCCCCCCCCC` (stereo not shown) [compound 869], for which, in the assay with BALB/c mice, the “Average number of photons (Total in-vivo flux)” value came to 1.22E+07, the “Average number of photons (Liver)” value amounted to 2.15E+06 and the “Average number of photons (Spleen)” value is 5.40E+04.
The corresponding values for `CCCCC/C=C\C/C=C\CCCCCCCC(=O)OCC(COC(=O)CCC(OCCCCCCCC)OCCCCCCCC)COC(=O)OCCCN(CC)CC` (stereo not shown) [compound 1001, reference compound] are 9.68E+07, 9.38E+06 and 1.65E+07.
The corresponding values for `CCCCC/C=C\C/C=C\CCCCCCCC(=O)OCC(COC(=O)OCCCC(OCCCCCCCC)OCCCCCCCC)COC(=O)OCCCN(CC)CC` (stereo not shown) [compound 1246] are 4.92E+07, 6.85E+06 and 3.83E+06.
Taken in the same sequence, the figures for `CCCCC/C=C\C/C=C\CCCCCCCC(=O)OCC(COCCCCC(OCCCCCCCC)OCCCCCCCC)COC(=O)OCCCN(CC)CC` (stereo not shown) [compound 1248] were 8.20E+07, 1.79E+07 and 3.48E+06.
Regarding `CCCCCCOC(CCC(=O)OCC(COC(=O)CCC(OCCCCCC)OCCCCCC)COC(=O)OCCCN(C)C)OCCCCCC` [compound 2021], in the assay on BALB/c mice, the “Average number of photons (Total in-vivo flux)” value is 4.49E+06, the “Average number of photons (Liver)” value is listed as 1.19E+06 and the “Average number of photons (Spleen)” value worked out at 1.04E+06.
The corresponding values for `CCCCCCOC(CCOC(=O)CCCCCCCCC(CCCCCCCCC(=O)OCCC(OCCCCCC)OCCCCCC)OC(=O)OCCCN(C)C)OCCCCCC` [compound 2035] are 1.49E+08, 3.12E+07 and 7.61E+05.
Taken in the same sequence, the figures for `CCCCCCOC(CCCCOC(=O)CCCCCCCCC(CCCCCCCCC(=O)OCCCCC(OCCCCCC)OCCCCCC)OC(=O)OCCCN(C)C)OCCCCCC` [compound 2036] were 5.60E+07, 1.04E+07 and 5.75E+05.
For the compound `CCCCCCOC(CCCOC(=O)CCCCCC(CCCCCC(=O)OCCCC(OCCCCCC)OCCCCCC)OC(=O)OCCCN(C)C)OCCCCCC` [compound 2039], in the assay on BALB/c mice, the “Average number of photons (Total in-vivo flux)” value is given as 2.05E+08, the “Average number of photons (Liver)” value came out at 4.26E+07 and the “Average number of photons (Spleen)” value is given as 3.75E+07. Moreover, in assay [1], the “delivery efficiency” value is on record as “different delivery preferences to different immune cells”.
For the compound `CCCCCCOC(CCCOC(=O)CCCCCCC(CCCCCCC(=O)OCCCC(OCCCCCC)OCCCCCC)OC(=O)OCCCN(C)C)OCCCCCC` [compound 2040], in the assay on BALB/c mice, the “Average number of photons (Total in-vivo flux)” value is on record as 1.53E+08, the “Average number of photons (Liver)” value is 2.97E+07 and the “Average number of photons (Spleen)” value turned out to be 1.11E+07.
In the case of `CCCCCCOC(CCCOC(=O)CCCCCCCC(CCCCCCCC(=O)OCCCC(OCCCCCC)OCCCCCC)OC(=O)OCCCN(C)C)OCCCCCC` [compound 2041], in the assay on BALB/c mice, the “Average number of photons (Total in-vivo flux)” value came to 2.08E+08, the “Average number of photons (Liver)” value is recorded as 4.16E+07 and the “Average number of photons (Spleen)” value stood at 1.07E+07. In assay [1], the “delivery efficiency” value is reported as “different delivery preferences to different immune cells”.
Take `CCCCCCOC(CCCOC(=O)CCCCC(CCCCC(=O)OCCCC(OCCCCCC)OCCCCCC)OC(=O)OCCCN(CC)CC)OCCCCCC` [compound 2042]: the “delivery efficiency” value in assay [1] is “different delivery preferences to different immune cells”.
For `CCCCCCOC(CCCOC(=O)CCCCCC(CCCCCC(=O)OCCCC(OCCCCCC)OCCCCCC)OC(=O)OCCCN(CC)CC)OCCCCCC` [compound 2043], in the assay with BALB/c mice, the “Average number of photons (Total in-vivo flux)” value worked out at 1.64E+08, the “Average number of photons (Liver)” value is 2.59E+07 and the “Average number of photons (Spleen)” value was 1.07E+07. For the same compound, the “delivery efficiency” value in assay [1] is “different delivery preferences to different immune cells”.
Regarding `CCCCCCOC(CCCOC(=O)CCCCCCC(CCCCCCC(=O)OCCCC(OCCCCCC)OCCCCCC)OC(=O)OCCCN(CC)CC)OCCCCCC` [compound 2044], in the assay on BALB/c mice, the “Average number of photons (Total in-vivo flux)” value stood at 4.94E+07, the “Average number of photons (Liver)” value was found to be 6.90E+06 and the “Average number of photons (Spleen)” value is on record as 1.18E+06.
Regarding `CCCCCCOC(CCCOC(=O)CCCCCC(CCCCCC(=O)OCCCC(OCCCCCC)OCCCCCC)OC(=O)OCCCN(CC)CC)OCCCCCC` [compound 2045], in the assay with BALB/c mice, the “Average number of photons (Total in-vivo flux)” value is given as 5.83E+07, the “Average number of photons (Liver)” value came to 8.90E+06 and the “Average number of photons (Spleen)” value stood at 1.89E+06. For the same compound, the “delivery efficiency” value in assay [1] is listed as “different delivery preferences to different immune cells”.
